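1) Cells in 96-well plates. 2) Compound, 48 h, 5 concentrations. 3) Linear interpolation between surrounding doses. 4) Unreached endpoint = highest concentration. GI50: concentration for 50% inhibition of growth.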 The source made the active and inactive calls. Cut-off read from the data, not from the text of the source: active = GI50 up to about 1.1 µM and inactive = higher.
Experiments:
Assay in all cases: NCI tumour cell line growth inhibition, 48 h
SR = test system: SR
UACC-62 = test system: UACC-62
SF-539 = test system: SF-539
LOX IMVI = test system: LOX IMVI
OVCAR-5 = test system: OVCAR-5
A498 = test system: A498
CAKI-1 = test system: CAKI-1
786-0 = test system: 786-0
SNB-19 = test system: SNB-19
SW-620 = test system: SW-620
NCI-H226 = test system: NCI-H226
MOLT-4 = test system: MOLT-4
HCT-116 = test system: HCT-116
NCI-H522 = test system: NCI-H522
ACHN = test system: ACHN
EKVX = test system: EKVX
SN12C = test system: SN12C
DU-145 = test system: DU-145
BT-549 = test system: BT-549
MDA-N = test system: MDA-N

| SMILES | GI50 (SR) | GI50 (UACC-62) | GI50 (SF-539) | GI50 (LOX IMVI) | GI50 (OVCAR-5) | GI50 (A498) | GI50 (CAKI-1) | GI50 (786-0) | GI50 (SNB-19) | GI50 (SW-620) | GI50 (NCI-H226) | GI50 (MOLT-4) | GI50 (HCT-116) | GI50 (NCI-H522) | GI50 (ACHN) | GI50 (EKVX) | GI50 (SN12C) | GI50 (DU-145) | GI50 (BT-549) | GI50 (MDA-N) |
| --- | --- | --- | --- | --- | --- | --- | --- | --- | --- | --- | --- | --- | --- | --- | --- | --- | --- | --- | --- | --- |
| COc1ccc(C2=Nc3ccccc3N=C(SC)C2)cc1 | 25.3 µM (inactive) | > 100 µM (inactive) | > 100 µM (inactive) | 16.9 µM (inactive) | 44 µM (inactive) | > 100 µM (inactive) | 46.8 µM (inactive) | 38.6 µM (inactive) | > 100 µM (inactive) | 16.9 µM (inactive) | > 100 µM (inactive) | 25.5 µM (inactive) | 50.4 µM (inactive) | 22.9 µM (inactive) | 69.8 µM (inactive) | 41 µM (inactive) | 66.7 µM (inactive) | – | – | – |
| O=C1Nc2ccccc2N/C1=C\C(=O)c1ccccc1O | > 100 µM (inactive) | > 100 µM (inactive) | – | > 100 µM (inactive) | > 100 µM (inactive) | > 100 µM (inactive) | > 100 µM (inactive) | > 100 µM (inactive) | > 100 µM (inactive) | > 100 µM (inactive) | > 100 µM (inactive) | > 100 µM (inactive) | > 100 µM (inactive) | > 100 µM (inactive) | > 100 µM (inactive) | > 100 µM (inactive) | > 100 µM (inactive) | – | – | – |
| O=C(C(=O)c1cc2ccccc2[nH]1)c1cc2ccccc2[nH]1 | 12.3 µM (inactive) | > 347 µM (inactive) | > 347 µM (inactive) | > 347 µM (inactive) | > 347 µM (inactive) | > 347 µM (inactive) | 234 µM (inactive) | > 284 µM (inactive) | > 347 µM (inactive) | 153 µM (inactive) | > 347 µM (inactive) | 24 µM (inactive) | 98.6 µM (inactive) | 13.8 µM (inactive) | > 347 µM (inactive) | > 347 µM (inactive) | 237 µM (inactive) | – | – | – |
| CS(=O)(=O)Nc1ccc(Nc2ccnc3ccc4[nH]ccc4c23)cc1 | – | 14.3 µM (inactive) | – | 9.12 µM (inactive) | 26.3 µM (inactive) | 18.5 µM (inactive) | 27.7 µM (inactive) | 9.64 µM (inactive) | 6.52 µM (inactive) | 8.32 µM (inactive) | 8.49 µM (inactive) | 3.13 µM (inactive) | 5.5 µM (inactive) | 6.4 µM (inactive) | 21.5 µM (inactive) | 24.8 µM (inactive) | 7.96 µM (inactive) | 9.93 µM (inactive) | 19.7 µM (inactive) | – |
| CN(C(=O)OC(C)(C)C)[C@H]1CCCC[C@H]1N1CCCC1 | > 100 µM (inactive) | > 100 µM (inactive) | > 100 µM (inactive) | > 100 µM (inactive) | > 100 µM (inactive) | > 100 µM (inactive) | > 100 µM (inactive) | > 100 µM (inactive) | > 100 µM (inactive) | > 100 µM (inactive) | > 100 µM (inactive) | > 100 µM (inactive) | > 100 µM (inactive) | > 100 µM (inactive) | > 100 µM (inactive) | > 100 µM (inactive) | > 100 µM (inactive) | > 100 µM (inactive) | > 100 µM (inactive) | – |
| Cc1c(Cl)cccc1NC(=O)C(=O)C1C(=O)CC(C)(C)CC1=O | > 100 µM (inactive) | > 100 µM (inactive) | > 100 µM (inactive) | > 100 µM (inactive) | > 100 µM (inactive) | > 100 µM (inactive) | > 100 µM (inactive) | > 100 µM (inactive) | > 100 µM (inactive) | > 100 µM (inactive) | > 100 µM (inactive) | > 100 µM (inactive) | > 100 µM (inactive) | > 100 µM (inactive) | > 100 µM (inactive) | > 100 µM (inactive) | > 100 µM (inactive) | – | – | – |
| CCCCCCCCCCCCCCCCCc1cccc(OCOCCOC)c1CO | > 100 µM (inactive) | > 100 µM (inactive) | > 100 µM (inactive) | – | > 100 µM (inactive) | > 100 µM (inactive) | > 100 µM (inactive) | > 100 µM (inactive) | > 100 µM (inactive) | > 100 µM (inactive) | > 100 µM (inactive) | > 100 µM (inactive) | > 100 µM (inactive) | > 100 µM (inactive) | > 100 µM (inactive) | > 100 µM (inactive) | – | – | > 100 µM (inactive) | – |
| CC(=O)Nc1ccc(S(=O)(=O)N/N=C/CN2C(=O)c3ccccc3C2=O)cc1 | > 100 µM (inactive) | > 100 µM (inactive) | > 100 µM (inactive) | > 100 µM (inactive) | – | > 100 µM (inactive) | > 100 µM (inactive) | > 100 µM (inactive) | > 100 µM (inactive) | > 100 µM (inactive) | > 100 µM (inactive) | > 100 µM (inactive) | > 100 µM (inactive) | > 100 µM (inactive) | > 100 µM (inactive) | > 100 µM (inactive) | > 100 µM (inactive) | – | – | – |
| O=c1c2cccc3cccc(c4oc5c6cccc7cccc(c(=O)c5c14)c76)c32 | 7.66 µM (inactive) | 12.8 µM (inactive) | 15.8 µM (inactive) | 12.2 µM (inactive) | 27.2 µM (inactive) | > 100 µM (inactive) | 15.8 µM (inactive) | 11.2 µM (inactive) | 11.6 µM (inactive) | 11.8 µM (inactive) | 17 µM (inactive) | 12.5 µM (inactive) | 2.25 µM (inactive) | 5.4 µM (inactive) | 11.6 µM (inactive) | 12.2 µM (inactive) | 13.8 µM (inactive) | – | – | – |
| COc1cc2c(cc1OC)CC(=O)Nc1cc(OC)c(OC)cc1CC2 | 5.74 µM (inactive) | 36.1 µM (inactive) | 33.2 µM (inactive) | > 82.4 µM (inactive) | > 83.8 µM (inactive) | 44.5 µM (inactive) | 68.2 µM (inactive) | 49.2 µM (inactive) | 99.8 µM (inactive) | 47.9 µM (inactive) | 79.1 µM (inactive) | 52.5 µM (inactive) | 49 µM (inactive) | 17.3 µM (inactive) | > 100 µM (inactive) | > 100 µM (inactive) | 45.9 µM (inactive) | – | – | – |
| c1ccc(-c2nnn3c2NC2=C(CCCC2)C3c2ccccc2)cc1 (stereo not given) | 13.5 µM (inactive) | 16.4 µM (inactive) | 19.1 µM (inactive) | 13.7 µM (inactive) | 16 µM (inactive) | – | 18.2 µM (inactive) | 16.7 µM (inactive) | 33.8 µM (inactive) | 12.5 µM (inactive) | 27.4 µM (inactive) | 0.425 µM (active) | 12 µM (inactive) | 5.68 µM (inactive) | 1.47 µM (inactive) | – | 21.1 µM (inactive) | 17.7 µM (inactive) | – | 12.9 µM (inactive) |
| O=C1NC2(CCCCCC2)C2CCCCCCC12O (stereo not given) | > 100 µM (inactive) | > 100 µM (inactive) | > 100 µM (inactive) | > 100 µM (inactive) | > 100 µM (inactive) | > 100 µM (inactive) | > 100 µM (inactive) | > 100 µM (inactive) | > 100 µM (inactive) | > 100 µM (inactive) | – | > 100 µM (inactive) | > 100 µM (inactive) | > 100 µM (inactive) | > 100 µM (inactive) | > 100 µM (inactive) | > 100 µM (inactive) | – | – | – |
| COC(=O)CCc1ccc(CCC(=O)OC)cc1 | > 100 µM (inactive) | – | > 100 µM (inactive) | > 100 µM (inactive) | > 100 µM (inactive) | > 100 µM (inactive) | > 100 µM (inactive) | > 100 µM (inactive) | > 100 µM (inactive) | > 100 µM (inactive) | – | > 100 µM (inactive) | > 100 µM (inactive) | > 100 µM (inactive) | > 100 µM (inactive) | > 100 µM (inactive) | – | > 100 µM (inactive) | – | > 100 µM (inactive) |
| COc1ccc(CN[C@H]2CCc3cc(OC)c(OC)c(OC)c3-c3ccc(SC)c(=O)cc32)c(OC)c1OC | 0.0167 µM (active) | 0.023 µM (active) | 0.0211 µM (active) | 0.0352 µM (active) | 0.0421 µM (active) | 0.0296 µM (active) | 0.0452 µM (active) | 0.037 µM (active) | 0.0658 µM (active) | 0.0416 µM (active) | 0.0237 µM (active) | 0.0361 µM (active) | 0.0229 µM (active) | 0.0216 µM (active) | 0.063 µM (active) | 0.0237 µM (active) | 0.0381 µM (active) | – | – | – |
| N#CC(/C(=N/NC(=N)N)C(=O)Nc1ccccc1[N+](=O)[O-])c1nc(-c2ccc([N+](=O)[O-])cc2)cs1 (stereo not given) | > 100 µM (inactive) | > 100 µM (inactive) | > 100 µM (inactive) | > 100 µM (inactive) | > 100 µM (inactive) | > 100 µM (inactive) | > 100 µM (inactive) | > 100 µM (inactive) | > 100 µM (inactive) | > 100 µM (inactive) | > 100 µM (inactive) | > 100 µM (inactive) | > 100 µM (inactive) | > 100 µM (inactive) | > 100 µM (inactive) | > 100 µM (inactive) | > 100 µM (inactive) | – | – | – |
| CC(C)C(NC(=O)C(Cc1ccccc1)NC(=O)[C@H]1CCC[C@H]1NC(=O)C(Cc1ccc(OC(C)(C)C)cc1)NC(=O)OC(C)(C)C)C(N)=O (stereo not given in full) | 34.9 µM (inactive) | 13.8 µM (inactive) | 16.5 µM (inactive) | 15.6 µM (inactive) | 18.8 µM (inactive) | 10.7 µM (inactive) | 95.9 µM (inactive) | 60.1 µM (inactive) | – | 20.9 µM (inactive) | 22.4 µM (inactive) | 17.4 µM (inactive) | 17.3 µM (inactive) | 14.9 µM (inactive) | 45.7 µM (inactive) | > 100 µM (inactive) | 18.2 µM (inactive) | 54.2 µM (inactive) | – | 18.3 µM (inactive) |

Reference: ChEMBL document CHEMBL1201862, “PubChem BioAssay data set” (2004)
